{
  "source": "patent US20260306500A1",
  "about": "“METHOD OF INHIBITING ADENOSINE TRIPHOSPHATE SECRETION, METHOD OF INHIBITING HEPATIC STELLATE CELL ACTIVATION, METHOD OF DEACTIVATING HEPATIC STELLATE CELL, METHOD OF TREATING HEPATIC FIBROSIS, METHOD OF TREATING NON-ALCOHOLIC STEATOHEPATITIS, AND METHOD OF TREATING PSORIASIS” (Kurume University, priority 2023, published 2026)",
  "key": {"[1]": {"target": "T1, V-ATPase (Bos taurus, UniProt P31404+P31408)", "T1 construct": "Chromaffin granule membranes were prepared from adrenal glands collected from slaughtered cattle; from tissue; host or cells: cattle adrenal glands, chromaffin granule membranes (sucrose density gradient)", "T1 sequence (P31404 whole entry, looked up)": "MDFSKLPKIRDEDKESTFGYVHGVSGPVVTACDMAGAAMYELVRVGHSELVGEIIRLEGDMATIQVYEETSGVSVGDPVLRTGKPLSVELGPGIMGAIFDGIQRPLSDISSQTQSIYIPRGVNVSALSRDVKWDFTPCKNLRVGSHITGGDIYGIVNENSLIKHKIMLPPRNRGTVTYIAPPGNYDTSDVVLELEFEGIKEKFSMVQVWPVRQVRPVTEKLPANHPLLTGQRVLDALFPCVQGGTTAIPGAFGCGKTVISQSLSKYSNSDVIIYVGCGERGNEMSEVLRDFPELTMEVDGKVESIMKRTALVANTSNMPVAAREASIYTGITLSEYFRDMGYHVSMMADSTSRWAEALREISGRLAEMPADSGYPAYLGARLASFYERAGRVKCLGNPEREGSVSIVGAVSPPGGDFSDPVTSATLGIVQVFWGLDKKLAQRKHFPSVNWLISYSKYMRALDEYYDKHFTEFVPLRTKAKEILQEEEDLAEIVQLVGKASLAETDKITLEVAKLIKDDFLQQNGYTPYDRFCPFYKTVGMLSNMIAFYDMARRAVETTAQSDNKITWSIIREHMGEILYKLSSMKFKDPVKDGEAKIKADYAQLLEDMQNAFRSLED", "T1 sequence (P31408 whole entry, looked up)": "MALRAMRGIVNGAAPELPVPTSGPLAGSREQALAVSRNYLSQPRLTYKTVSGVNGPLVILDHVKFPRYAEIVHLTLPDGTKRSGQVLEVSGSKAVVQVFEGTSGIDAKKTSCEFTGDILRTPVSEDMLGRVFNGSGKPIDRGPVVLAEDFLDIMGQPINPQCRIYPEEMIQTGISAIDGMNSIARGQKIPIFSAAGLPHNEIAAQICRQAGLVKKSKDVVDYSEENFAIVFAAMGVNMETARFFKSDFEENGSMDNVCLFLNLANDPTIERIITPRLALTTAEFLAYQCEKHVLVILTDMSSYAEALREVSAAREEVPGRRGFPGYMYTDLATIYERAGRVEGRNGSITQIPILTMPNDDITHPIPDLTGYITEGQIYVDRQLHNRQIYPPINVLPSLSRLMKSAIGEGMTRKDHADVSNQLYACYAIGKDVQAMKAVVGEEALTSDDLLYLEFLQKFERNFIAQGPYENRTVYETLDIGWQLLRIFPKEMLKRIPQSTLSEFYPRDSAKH", "experiment": "ATP-dependent proton transport by V-ATPase (acridine orange fluorescence quenching)", "format": "biochemical, cattle", "settings": "role: substrate; addition of ATP, relative to before addition, N=2", "protocol": "(§1) Chromaffin granule membranes were prepared from adrenal glands collected from slaughtered cattle according to Reference A (Nathan Nelson et al., 1988, Chromaffin Granule Proton Pump, Methods in Enzymology, 157, 619-633). Chromaffin granule membranes prepared by sucrose density gradient centrifugation were suspended in 2 ml of SME buffer (20 mM MOPS-tris (pH 7.0), 0.3 M sucrose, 5 mM EDTA, 10 μg/ml leupeptin, and 10 μg/ml pepstatin)+25% glycerol, and the resulting suspension was aliquoted and stored at −80° C. Under these conditions, the ATP transport activity, the V-ATPase activity, and the catecholamine transport activity remain fully active for at least one year.\nATP-dependent proton transport by V-ATPase was measured according to Reference B. Proton transport activity was measured using a spectrofluorometer at excitation wavelength of 492 nm and a fluorescence wavelength 540 nm, wherein fluorescence quenching of acridine orange was used as an index (N=2). The transmembrane potential generated was measured using a spectrofluorometer at an excitation wavelength of 580 nm and a fluorescence wavelength of 630 nm, wherein fluorescence quenching of oxonol-V was used as an index (N=2). The acridine measurement liquid (2 ml) contained 20 mM MOPS-tris (pH 7.0), 0.2 M sucrose, 0.1 M potassium chloride, 5 mM magnesium acetate, 0.2 μg valinomycin, 2 μM acridine orange, and about 20 μg of chromaffin granules. The oxonol-V measurement liquid (2 ml) contained 20 mM MOPS-tris (pH 7.0), 0.3 M sucrose, 5 mM magnesium acetate, 5 μM oxonol-V, and about 20 μg of chromaffin granules.\n(§2) Chromaffin granule membrane vesicles were prepared in the same manner as in Example 5, and uptake of radiolabeled ATP into the vesicles was measured. Transport activity of catecholamine (dopamine) and ATP-dependent proton transport by V-ATPase were also measured in the same manner as in Example 5."}, "[2]": {"target": "T1, V-ATPase", "experiment": "Transmembrane potential generated (oxonol-V fluorescence quenching) in chromaffin granules", "format": "biochemical, cattle", "settings": "role: substrate; addition of ATP, relative to before addition, N=2", "protocol": "as §1\nATP-dependent proton transport by V-ATPase was measured according to Reference B. Proton transport activity was measured using a spectrofluorometer at excitation wavelength of 492 nm and a fluorescence wavelength 540 nm, wherein fluorescence quenching of acridine orange was used as an index (N=2). The transmembrane potential generated was measured using a spectrofluorometer at an excitation wavelength of 580 nm and a fluorescence wavelength of 630 nm, wherein fluorescence quenching of oxonol-V was used as an index (N=2). […]"}, "[3]": {"system": "mouse liver", "experiment": "Thioacetamide-induced hepatic fibrosis in mice: histology, immunostaining and fibrosis score", "format": "in vivo", "settings": "TAA 50 mg/kg i.p. three times per week", "protocol": "Wild-type mice, […] (manufactured by Charles River Japan), were housed on a 12-hour light/dark cycle and fed a standard solid diet (5.4% fat, CRF-1, manufactured by Oriental Yeast Co., Ltd.) ad libitum. Thioacetamide (TAA, manufactured by FUJIFILM Wako Pure Chemical Corporation) was dissolved in physiological saline at 0.9% w/v. Eight-week-old mice were randomly assigned to three groups and continuously treated for 9 weeks according to the following scheme. At Week 9, all mice were euthanized 1 hour after administration of physiological saline or IMG.\nNormal control group (N=6): Physiological saline was intraperitoneally administered to mice three times per week. Eight hours after each administration, a vehicle was orally administered to the mice.\nTAA group (N=6): TAA (50 mg/kg, intraperitoneal) was administered to mice. Eight hours thereafter, physiological saline was orally administered to the mice. This treatment was performed three times per week for a total of 9 weeks.\nTAA+IMG group (N=6): During the first week, physiological saline was orally administered to mice. Thereafter, imeglimin (IMG) at 200 mg/kg was orally administered three times per week for 8 weeks. The administration of IMG was performed 8 hours after intraperitoneal administration of TAA (50 mg/kg).\n(§3) For immunohistochemical analysis, liver samples were fixed in 4% paraformaldehyde, embedded in paraffin, and then sectioned. The sections were stained with HE or PSR. In addition, the paraffin-embedded sections were subjected to immunostaining using an α-SMA monoclonal antibody (1:500, catalog No. A5228, manufactured by Sigma-Aldrich) and an F4/80 monoclonal antibody (1:200, catalog No. MCA497GA, manufactured by AbD Serotec). The cell specimens were observed using a microscope (BZ-X700 series, manufactured by Keyence) or a confocal laser microscope (FV1000, manufactured by Olympus Corporation). The number of F4/80-positive cells was counted in four high-power fields per section. The α-SMA-positive area and the PSR-positive area were quantified using the image analysis software Fiji-ImageJ (1.54f).\nA histological score was determined by a blinded investigator using the NAFLD histological scoring system of the Nonalcoholic Steatohepatitis Clinical Research Network. The total NAFLD activity score (NAS) was calculated from the total of the individual scores for steatosis ([…]), lobular inflammation (F4/80), and hepatocyte ballooning. The range of each parameter was 0 to 2 (ballooning) or 3 (the other two scores), where 0 indicates normal and 2 or 3 indicates severe. Staging of fibrosis was based on the NASH fibrosis stages, and a fibrosis stage ranging from 0 to 4 was determined according to Reference H (David E. Kleiner et al., 2005, Design and validation of a histological scoring system for nonalcoholic fatty liver disease, Hepatology, 41, 1313-1321).\nAll results are expressed as the mean±standard error of the mean (S.E.M.). Statistical analyses were performed using GraphPad Prism 7.0 (GraphPad Software). Significance upon comparison between two groups was evaluated by an unpaired two-tailed Student's t-test. […]. Statistical significance among three or more groups was determined by two-way analysis of variance (ANOVA) with Tukey's or Dunnett's post hoc test. Coloc2 was used to perform image analysis, automatic thresholding, and pixel intensity correlation for statistical processing. Statistical significance was assumed when the P value was <0.05."}, "[4]": {"system": "α-SMA-positive cells (stellate cells) in mouse liver", "experiment": "TAA-induced activation of HSCs in mice: α-SMA immunostaining of liver sections", "format": "in vivo", "source_text": "as §3\nIn accordance with Example 15, immunostaining of α-SMA in liver sections and observation by fluorescence microscopy were performed for the normal control group, the TAA group, and the TAA+IMG group, and for a TAA+Clo group, which was treated in the same manner as the TAA+IMG group except that clodronate, instead of imeglimin, was administered at 30 mg/kg by blending it in the drinking water from 1 week after the start of TAA administration."}, "[5]": {"system": "catecholamine transport of chromaffin granule membranes", "experiment": "Catecholamine (dopamine) transport in chromaffin granule membranes", "format": "biochemical, cattle", "settings": "role: inhibitor; 1 μM reserpine", "protocol": "as §1\nA catecholamine transport inhibition experiment was carried out in the same manner as the ATP transport experiment except that the experiment used a measurement liquid containing 20 mM MOPS-tris (pH 7.0), 0.1 M sucrose, 0.1 M potassium chloride, 5 mM magnesium acetate, and about 5 μg of chromaffin granule membranes. To 0.5 ml of the measurement liquid, 2 mM ATP was added, and the resulting mixture was incubated at 30° C. for about 5 minutes, followed by addition of 3[H]-dopamine thereto to a final concentration of 10 μM. After further incubation at 30° C. for 15 minutes, 0.2 ml of the reaction liquid was subjected to suction filtration through a Millipore MCE membrane filter with a pore size of 0.45 μm, and the radioactivity on the filter was measured (N=3). The substrate, 3[H]-dopamine, was prepared by mixing 3,4-[RING-2,5,6-^3H]dihydroxyphenylethylamine (dopamine) (30 Ci/mmol) (manufactured by New England Nuclear) with dopamine hydrochloride (manufactured by LKT Laboratories) such that a final concentration of […] was achieved during the use.\nas §2"}, "[6]": {"system": "keratinocytes", "experiment": "Imiquimod-induced ATP secretion in keratinocytes", "format": "cell-based, human", "settings": "imiquimod 1 μg/ml or 0.5 μg/ml, 15 minutes, N=8 (FIG. 32)", "protocol": "In the same manner as in Example 1, keratinocytes were cultured at 2.5×10^4 cells/well in a 24-well plate at 37° C. in 5% CO2 for 4 days. The medium was replaced with HBSS (manufactured by Gibco) supplemented with 1 μM or 10 μM imeglimin, and incubation was performed at 37° C. in 5% CO2 for 18 hours. Thereafter, imiquimod was added thereto at 1 μg/ml or 0.5 μg/ml, and incubation was performed for 15 minutes, followed by collection of 200 μl of the supernatant. The supernatant was immediately treated on a heat block at 95° C. for 10 minutes, and ATP in the supernatant was quantified using a ATP Assay Kit—Luminescence (manufactured by Dojindo) (N=8)."}, "[7]": {"system": "mouse auricle", "experiment": "Imiquimod-induced psoriasis model, oral imeglimin (Example 18)", "format": "in vivo", "settings": "62.5 mg of 5% imiquimod cream daily, Days 1 to 7 (disease inducer)", "protocol": "Experimental psoriatic symptoms were induced in a mouse auricle by imiquimod. Six-week-old male C57BL/6 mice (N=5) were acclimated for one week. On Days 1 to 7, 62.5 mg of 5% imiquimod cream (Beselna Cream 5%) (3.125 mg in terms of the active ingredient, manufactured by Mochida Pharmaceutical Co. Ltd.) was applied to the right auricle of the mice for 7 consecutive days (IMQ group). Once daily after the imiquimod application, the imeglimin administration group (IMQ+IMG group) received oral administration, at 40 mg/kg, of 500-mg Twymeeg (trademark) tablets (manufactured by Sumitomo Pharma Co. Ltd.) dissolved in physiological saline. The control group received an equal volume of physiological saline. On Day 8, the mice were euthanized by cervical dislocation, and auricle thickness was measured using a dial thickness gauge (manufactured by Adachi Sogyo Co., Ltd.).\nEach excised mouse auricle was fixed in 4% paraformaldehyde at 4° C. overnight. After ethanol substitution, the auricle was embedded in paraffin, sectioned using a rotary microtome Leica RM2165 (thickness, […]), and subjected to HE staining or immunohistochemical staining. For the immunohistochemical staining, the sections were deparaffinized, washed in xylene, and rehydrated through graded alcohols. The sections were incubated in DAKO at 95° C. for 30 minutes. The sections were blocked at room temperature for 60 minutes and then incubated at room temperature for 2 hours to allow reaction with a TGM1 anti-rabbit polyclonal antibody (catalog number 12912-3-AP, manufactured by Proteintech). The sample was washed and then allowed to react with a secondary antibody (Alexa 544-conjugated secondary antibody (goat anti-rabbit IgG) (manufactured by Molecular Probes)) at room temperature for 60 minutes. After allowing reaction with DAPI at room temperature for 10 minutes, the sections were mounted with Fluoromount and imaged using a fluorescence microscope (BZ-X710, manufactured by Keyence)."}, "[8]": {"system": "mouse auricle", "experiment": "Imiquimod-induced psoriasis relapse model (Example 20)", "format": "in vivo", "settings": "5% imiquimod cream resumed on Day 23, vs first induction", "protocol": "To the left auricle of each mouse, 62.5 mg of 5% imiquimod cream (Beselna Cream 5%) was applied once daily a total of seven times (Days 1 to 7) in accordance with Example 19 to induce imiquimod-induced psoriasis. Thereafter, the imiquimod treatment was interrupted, and imeglimin (40 mg/kg) was orally administered on alternate days for 2 weeks (Day 8 to 22) (IMG). Mice without administration of imeglimin were designated IMQ. On Day 23, the imiquimod treatment was resumed, and 62.5 mg of 5% imiquimod cream (Beselna Cream 5%) was applied once daily a total of […]. In parallel, imeglimin (40 mg/kg) was orally administered daily to IMG."}},
  "data": [
    {"smiles": "Nc1ncnc2c1ncn2[C@@H]1O[C@H](COP(=O)(O)OP(=O)(O)OP(=O)(O)O)[C@@H](O)[C@H]1O", "note": "[ATP, adenosine triphosphate]", "values": [
      {"measurement": "quenching of acridine orange fluorescence", "setting": "[1]", "result": 62, "unit": "%"},
      {"measurement": "quenching of oxonol-V fluorescence", "setting": "[2]", "result": 40, "unit": "%"}
    ]},
    {"smiles": "CC(=N)S", "note": "[TAA, Thioacetamide]", "values": [
      {"measurement": "reaction of F4/80-positive macrophages", "setting": "[3]; 9 weeks (disease inducer)", "result": "markedly increased"},
      {"measurement": "α-SMA-positive reaction", "setting": "[3]; 9 weeks (disease inducer)", "result": "markedly increased"},
      {"measurement": "HE-stained liver tissue", "setting": "[3]; 9 weeks, vs normal control", "result": "destruction of the lobular structure, hepatocyte ballooning, and inflammatory cell infiltration"},
      {"measurement": "fibrosis score", "setting": "[3]; 9 weeks, vs normal control (FIG. 28)", "result": "markedly increased"},
      {"measurement": "α-SMA-positive reaction throughout the mouse liver", "setting": "[4]; TAA 50 mg/kg i.p. (FIG. 29)", "result": "increased markedly"},
      {"measurement": "α-SMA-positive area fraction", "setting": "[4]; TAA group (disease inducer, 50 mg/kg i.p.), four measurements, normal control 0.14±0.01", "result": "2.79±0.33"}
    ]},
    {"smiles": "COC(=O)[C@H]1[C@H]2C[C@@H]3c4[nH]c5cc(OC)ccc5c4CCN3C[C@H]2C[C@@H](OC(=O)c2cc(OC)c(OC)c(OC)c2)[C@@H]1OC", "note": "[reserpine]", "values": [
      {"measurement": "ATP-dependent dopamine transport", "setting": "[5]", "result": "almost completely blocked"}
    ]},
    {"smiles": "CC(C)Cn1cnc2c(N)nc3ccccc3c21", "note": "[imiquimod]", "values": [
      {"measurement": "ATP secretion from the keratinocytes", "setting": "[6]", "result": "markedly promoted"},
      {"measurement": "auricle thickening", "setting": "[7]", "result": "auricle thickening induced"},
      {"measurement": "psoriatic symptoms in the epidermis", "setting": "[7]", "result": "caused psoriatic symptoms in the epidermis, leading to partial desquamation"},
      {"measurement": "psoriatic symptoms on resumed treatment", "setting": "[8]", "result": "induced more rapidly and more strongly than at the first induction"}
    ]}
  ]
}
